Where two headings read alike, the source gives them in different places.
Legend:
VZV-ORF57-ΔTS = assay: microbe, parasite or virus in culture; type: cell-based, Varicella zoster virus; conditions: Human alphaherpesvirus 3, ARPE-19
[1] = In vitro stability in mouse liver homogenates (LC-MS/MS); type: in vitro ADME, BALB/c mice; conditions: 37 °C; converted to L-BHDU and L-BHDU-MP
Description: The antiviral efficacy of POM-L-BHDU-MP prompted us to perform pharmacokinetic studies on POM-L-BHDU-MP in vitro and in vivo. […] In liver homogenates, POM-L-BHDU-MP converted to L-BHDU and L-BHDU-MP (Figure 4). POM-L-BHDU-MP incubated with homogenized mouse liver was unstable and converted to L-BHDU and L-BHDU-MP. The concentration of L-BHDU increased steadily, reaching 1.9 μg/mL after 60 min. L-BHDU-MP appeared rapidly and reached maximal concentration (4.6 μg/mL) after 4 min, which is 32-fold higher than the corresponding L-BHDU concentration. Thus, POM-L-BHDU-MP likely converts rapidly into L-BHDU-MP and more slowly into L-BHDU in the liver.
Untreated BALB/c mice were euthanized, and their livers were immediately removed. […] The concentration of POM-L-BHDU-MP, L-BHDU, and L-BHDU-MP were determined using LC-MS/MS.
The primary stock solutions for the calibration were prepared at 0.5 mg/mL for L-BHDU, 1 mg/mL for POM-L-BHDU-MP, and 1 mg/mL for L-BHDU-MP. […] The samples were analyzed in a negative ESI mode. […] The collision gas was argon with a collision cell pressure of 3.18 × 10^–3 mbar, and the collision energy was 30 V. A multiple reaction monitoring (MRM) function was used to quantify the analytes using the following ion transitions: 266.1 → 223.2 for AZT (ISTD), 318.7 → 80.7 for L-BHDU, 398.7 → 180.9 for L-BHDU-MP, and 626.6 → 325 for POM-L-BHDU-MP.

VZV-ORF57-Luc = conditions: for EC50: cell-free VZV-ORF57-Luc, ARPE-19 cells, 72 hpi, bioluminescence imaging
[2] = Neutral red dye uptake cytotoxicity assay in ARPE-19 cells; conditions: human

CC(C)(C)C(=O)OCOP(=O)(OCOC(=O)C(C)(C)C)OC[C@H]1OC[C@@H](n2cc(/C=C/Br)c(=O)[nH]c2=O)O1 [POM-L-BHDU-MP (41), Bis(POM) Prodrug of L-BHDU-MP]
EC50 (VZV-ORF57-ΔTS): 1.2 nM
stability in homogenized mouse liver [1]: unstable
SI (CC50/EC50) (VZV-ORF57-Luc): >2809
EC50 (VZV-ORF57-Luc): 35.6 nM
EC50 (VZV-ORF57-Luc; listed as POM-L-BHDU-MP): 36 nM
SI (CC50/EC50) (VZV-ORF57-Luc; selectivity index = CC50/EC50, ARPE-19 cells): >2809
SI (CC50/EC50) (VZV-ORF57-Luc; selectivity index = CC50/EC50, ARPE-19 cells, listed as POM-L-BHDU-MP): > 2809
CC50 at 72 h [2]: > 100000 nM
